Source: ChEMBL document CHEMBL4265976, “Synthesis, molecular docking and inhibition studies of novel 3-N-aryl substituted-2-heteroarylchromones targeting microtubule affinity regulating kinase 4 inhibitors” (Eur J Med Chem, 2018)
pIC50: −log10 of the molar value. Activity calls are given as the source filed them. The rule behind the calls is not given here.

Legend:
[1] = biological target: T1, MAP/microtubule affinity-regulating kinase 4 (Homo sapiens) (UniProt Q96L34); test: Binding affinity to MARK4 (unknown origin) (59 to 368 residues) expressed in Escherichia coli M15 up to 10 uM by fluorescence based Stern-Volmer plot analysis
T1 sequence (whole entry): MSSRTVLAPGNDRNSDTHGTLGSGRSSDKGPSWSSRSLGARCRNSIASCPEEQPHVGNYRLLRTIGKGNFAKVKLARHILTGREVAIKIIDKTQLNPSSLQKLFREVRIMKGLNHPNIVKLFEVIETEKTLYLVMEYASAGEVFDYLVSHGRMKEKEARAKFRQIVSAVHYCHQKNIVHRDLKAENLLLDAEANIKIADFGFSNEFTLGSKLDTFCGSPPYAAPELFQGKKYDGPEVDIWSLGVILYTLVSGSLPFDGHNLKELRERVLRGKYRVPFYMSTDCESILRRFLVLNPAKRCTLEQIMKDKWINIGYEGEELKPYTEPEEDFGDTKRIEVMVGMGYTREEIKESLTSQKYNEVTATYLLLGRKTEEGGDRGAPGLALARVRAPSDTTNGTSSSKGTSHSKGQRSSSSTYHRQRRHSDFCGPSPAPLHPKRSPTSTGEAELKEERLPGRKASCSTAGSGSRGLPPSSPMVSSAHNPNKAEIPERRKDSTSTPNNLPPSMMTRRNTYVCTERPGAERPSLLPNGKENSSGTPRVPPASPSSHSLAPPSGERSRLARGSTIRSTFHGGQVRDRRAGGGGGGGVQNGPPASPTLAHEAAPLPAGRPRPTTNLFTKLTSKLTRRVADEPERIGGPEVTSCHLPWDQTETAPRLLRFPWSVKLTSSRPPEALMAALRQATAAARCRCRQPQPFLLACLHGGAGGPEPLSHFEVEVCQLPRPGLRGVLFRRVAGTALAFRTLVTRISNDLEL

[2] = tested on: MCF7; test: Antiproliferative activity against human MCF7 cells after 48 hrs by MTT assay; format: functional, cell-based; details: for pIC50: MCF7, 48 h
[3] = tested on: HepG2; test: Induction of apoptosis in human HepG2 cells assessed as necrotic cells at IC50 after 24 to 48 hrs by Annexin V-FITC staining-based flow cytometric analysis (reference value: 0%); format: functional
[4] = tested on: MCF7; test: Induction of ROS generation in human MCF7 cells at IC50 after 5 to 6 hrs by DCFDA staining based flow cytometric analysis; format: functional, cell-based
[5] = biological target: T1, MAP/microtubule affinity-regulating kinase 4 (Homo sapiens); test: Inhibition of MARK4 (unknown origin) (59 to 368 residues) expressed in Escherichia coli M15 3 to 10 uM by dot blot assay
[6] = tested on: MCF7; test: Induction of apoptosis in human MCF7 cells assessed as early apoptotic cells at IC50 after 24 to 48 hrs by Annexin V-FITC staining-based flow cytometric analysis (reference value: 0%); format: functional
[7] = tested on: MCF7; test: Induction of apoptosis in human MCF7 cells assessed as late apoptotic cells at IC50 after 24 to 48 hrs by Annexin V-FITC staining-based flow cytometric analysis (reference value: 0%); format: functional
[8] = tested on: MCF7; test: Induction of apoptosis in human MCF7 cells assessed as necrotic cells at IC50 after 24 to 48 hrs by Annexin V-FITC staining-based flow cytometric analysis (reference value: 0%); format: functional
[9] = tested on: HepG2; test: Induction of apoptosis in human HepG2 cells assessed as early apoptotic cells at IC50 after 24 to 48 hrs by Annexin V-FITC staining-based flow cytometric analysis (reference value: 0%); format: functional
[10] = tested on: HepG2; test: Antiproliferative activity against human HepG2 cells after 48 hrs by MTT assay; format: functional, cell-based; details: for pIC50: HepG2, 48 h
[11] = tested on: MCF7; test: Induction of apoptosis in human MCF7 cells assessed as viable cells at IC50 after 24 to 48 hrs by Annexin V-FITC staining-based flow cytometric analysis relative to control; format: functional
[12] = biological target: T1, MAP/microtubule affinity-regulating kinase 4 (Homo sapiens); test: Inhibition of MARK4-mediated tau phosphorylation in human MCF7 cells at IC50 after 24 hrs by flow cytometric analysis; format: cell-based
[13] = Cytotoxicity against human HEK293 cells assessed as cell viability up to 200 uM after 72 hrs by MTT assay relative to control; format: cell-based; details: read-out: Activity
[14] = tested on: HepG2; test: Induction of apoptosis in human HepG2 cells assessed as late apoptotic cells at IC50 after 24 to 48 hrs by Annexin V-FITC staining-based flow cytometric analysis (reference value: 0%); format: functional
[15] = biological target: T2, MAP/microtubule affinity-regulating kinase 4 (Homo sapiens, UniProt Q96L34); test: Inhibition of MARK4 (unknown origin) (59 to 368 residues) expressed in Escherichia coli M15 in presence of [gamma-32P]ATP by ATPase assay
T2 sequence (Q96L34 whole entry): T1 sequence (whole entry)

[16] = tested on: HepG2; test: Induction of apoptosis in human HepG2 cells assessed as viable cells at IC50 after 24 to 48 hrs by Annexin V-FITC staining-based flow cytometric analysis relative to control; format: functional

| Compound | Activity [1] | Activity [2] | pIC50 [2] | Activity [3] | Activity [4] | inhibition [5] | Activity [6] | Activity [7] | Activity [8] | Activity [9] | Activity [10] | pIC50 [10] | Activity [11] | inhibition [12] | viability at 72 h [13] | Activity [14] | pIC50 [15] | Activity [16] |
| --- | --- | --- | --- | --- | --- | --- | --- | --- | --- | --- | --- | --- | --- | --- | --- | --- | --- | --- |
| COc1ccc(Nc2c(-c3ccco3)oc3ccccc3c2=O)cc1 | Active | Dose-dependent effect | 4.79 | 3.12% | Active | Active | 18.7% | 1.21% | 0.027% | 5.13% | Dose-dependent effect | 4.72 | 80.1% | Active | 85% | 4.79% | 5.25 | 87% |
| O=c1c(Nc2ccc([N+](=O)[O-])cc2)c(-c2ccco2)oc2c(Cl)cc(Cl)cc12 | Active | Dose-dependent effect | 5.49 | 4.33% | Active | Active | 26.5% | 15.9% | 1.72% | 8.53% | Dose-dependent effect | 5.19 | 55.8% | Active | 85% | 6.54% | 5.67 | 80.6% |
| O=c1c(Nc2ccc(I)cc2)c(-c2ccco2)oc2c(Cl)cc(Cl)cc12 | Active | Dose-dependent effect | 5.36 | 0.013% | Active | Active | 27.9% | 1.9% | 0.15% | 15.2% | Dose-dependent effect | 5.28 | 70.1% | Active | 85% | 2.56% | 5.70 | 82.3% |
